Reference: patent publication US7709613B2, “Rhenium-188 and rhenium-186 for treatment of tumors expressing a Na+/I− symporter” (priority 2002, dated 2010)
Where two headings read alike, the source gives them in different places.

Tests used:
rat thyroid NIS = biological target: T1, rat thyroid NIS (Rattus norvegicus, UniProt Q63008); details: ref. [44], cited from earlier work; for Km: actively transported ions
T1 sequence (Q63008 1-618): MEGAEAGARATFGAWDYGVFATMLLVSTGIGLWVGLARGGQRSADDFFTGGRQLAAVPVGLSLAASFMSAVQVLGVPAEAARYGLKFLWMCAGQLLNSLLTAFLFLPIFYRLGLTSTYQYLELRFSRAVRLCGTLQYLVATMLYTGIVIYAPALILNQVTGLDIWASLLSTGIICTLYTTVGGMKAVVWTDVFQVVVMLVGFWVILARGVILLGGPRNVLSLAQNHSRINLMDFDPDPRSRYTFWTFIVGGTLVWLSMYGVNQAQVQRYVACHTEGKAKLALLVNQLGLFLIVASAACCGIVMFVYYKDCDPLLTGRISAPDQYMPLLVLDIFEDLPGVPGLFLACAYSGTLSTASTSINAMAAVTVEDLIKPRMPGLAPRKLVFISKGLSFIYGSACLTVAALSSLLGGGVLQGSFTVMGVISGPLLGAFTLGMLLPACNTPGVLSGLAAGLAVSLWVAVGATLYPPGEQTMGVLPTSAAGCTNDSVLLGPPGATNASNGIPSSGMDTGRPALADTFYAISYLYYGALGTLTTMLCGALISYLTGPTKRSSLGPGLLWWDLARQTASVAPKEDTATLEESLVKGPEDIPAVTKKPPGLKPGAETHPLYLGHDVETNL

hNIS = biological target: T2, hNIS (Homo sapiens, UniProt Q92911); test: Comparative 125I and 188Re uptake into hNIS-transfected and non-transfected MDCK cells; type: cell-based; details: for Km: hNIS-transfected MDCK cells, Lineweaver-Burk plot, 4-min initial rates, read-out: Km for influx
T2 construct: expressed in transfected cells; host or cells: MDCK (Madin-Darby canine kidney) cells, hNIS in pcDNA 3.1
T2 sequence (Q92911 1-643): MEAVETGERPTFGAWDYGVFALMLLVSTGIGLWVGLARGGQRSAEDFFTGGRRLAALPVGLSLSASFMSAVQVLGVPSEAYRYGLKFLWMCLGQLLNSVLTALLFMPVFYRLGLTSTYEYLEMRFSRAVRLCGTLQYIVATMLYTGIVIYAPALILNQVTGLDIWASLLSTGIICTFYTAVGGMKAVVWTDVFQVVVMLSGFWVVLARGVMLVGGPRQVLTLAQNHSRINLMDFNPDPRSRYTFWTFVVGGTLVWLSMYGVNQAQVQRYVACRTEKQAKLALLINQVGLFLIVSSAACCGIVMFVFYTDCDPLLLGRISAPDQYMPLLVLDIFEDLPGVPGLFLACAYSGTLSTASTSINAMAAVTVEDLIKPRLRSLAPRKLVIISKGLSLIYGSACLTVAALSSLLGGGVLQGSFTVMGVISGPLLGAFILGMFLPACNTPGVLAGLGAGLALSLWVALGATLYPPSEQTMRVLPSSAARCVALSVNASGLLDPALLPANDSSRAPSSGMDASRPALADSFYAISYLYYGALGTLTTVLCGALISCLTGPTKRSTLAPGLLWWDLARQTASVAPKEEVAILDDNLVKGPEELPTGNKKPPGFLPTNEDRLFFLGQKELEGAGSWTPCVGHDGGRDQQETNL
Description: Comparative ^125I and ^188Re uptake into the NIS-expressing cells. Both concentration dependence and kinetic experiments for ^125I and ^188ReO4^− in hNIS-transfected (hNIS in pcDNA 3.1 plasmid) and non-transfected MDCK (Madin-Darby canine kidney) cells were performed using the methods of Weiss et al. and Dai et al.. […] A 4-min time point was used to estimate initial rates for kinetic experiments. Saturation kinetics were analyzed by Lineweaver-Burk plot.

FRTL-5 cells = details: read-out: Km for ^125I^− influx; cited from earlier work
[1] = test system: NIS-expressing xenografted mammary adenocarcinoma (NAFA cells); type: in vivo, nude mice
Description: Animal model. […] Since erbB-2 (Neu) is one of the better known human breast cancer oncogenes, a mammary tumor cell line (NAFA) induced by oncogenic Neu was used. The NAFA cell line derived from the MMTV-NeuT mouse was grown in DMEM with 10% fetal bovine serum and 1% penicillin-streptomycin. […] Female nude mice (Charles River Laboratories) 4-6 weeks old were injected SC with 10^6 NAFA cells into the left groin.
Biodistribution. […] In order to block mg-NIS in expressing organs and tumor, control animals were injected with the above mixture of isotopes combined with 2 mg NaClO4. […] The % ID/g for each organ was determined, and RIs (% ID/g in the tumor divided by the % ID/g in normal tissue) were calculated.

[2] = ref. [23]; cited from earlier work
[3] = Dosimetry calculations (MIRDOSE 3) for 70-kg reference adult bearing a 2 g tumor; design: species or system human; details: using S-values for the whole body
Description: Dosimetry. The self-doses to major organs and tumors from ^131I and ^188Re in humans were calculated using MIRDOSE 3 software (ORNL) applying S-values for a 70-kg reference adult. “S” is an absorbed dose per unit cumulated activity. S-values are tabulated in the Medical Internal Radiation Dose pamphlet #11 published by the Society of Nuclear Medicine. The following formula [26] was used for conversion of time-activity data in mice into time-activity data in humans: % ID human organ=% ID/ganimal organ·(body massaninal/body masshuman)·organ masshuman.
It should be noted that dosimetry calculations in humans were performed with the sole purpose of comparing the therapeutic efficacy and potential damage to the stomach and thyroid from ^131I and ^188Re beta-particles, thus only “self” doses were calculated. […] However, in more comprehensive dosimetry calculations organ cross-irradiation from highly penetrative ^131I gamma-rays should be taken into consideration.

[4] = Safe dose study in healthy mice, 80 days observation, thyroid and stomach histology; type: in vivo; details: 1.5 mCi
Description: To establish the safe dose of ^188ReO4^− to treat the NIS-expressing tumors in mice, healthy mice were treated with 1.5 mCi ^188ReO4^− and observed for 80 days. […] After 80 days the animals were sacrificed, their thyroids and stomachs removed and analyzed histologically. FIGS. 3A-3C present the hematoxylin and eosin stained thyroid tissue from a control mouse, a mouse treated with 1.5 mCi ^188ReO4^−, and a mouse treated with 50 μCi ^131I^−. FIGS. 3D-3E show the stomachs from the control mouse and the mouse treated with 1.5 mCi ^188ReO4^−, respectively.

[5] = test system: NAFA cells-xenografted tumors; test: Treatment of nude mice bearing NAFA cells-xenografted tumors; type: in vivo; details: 1.5 mCi followed by 2nd dose of 1.5 mCi one week later; vs untreated tumors
Description: Animal model. To investigate the binding of ^125I and ^188Re to NIS-expressing mammary tumors, a xenografted mammary adenocarcinoma model in nude mice was used. Since erbB-2 (Neu) is one of the better known human breast cancer oncogenes, a mammary tumor cell line (NAFA) induced by oncogenic Neu was used. The NAFA cell line derived from the MMTV-NeuT mouse was grown in DMEM with 10% fetal bovine serum and 1% penicillin-streptomycin. […] Female nude mice (Charles River Laboratories) 4-6 weeks old were injected SC with 10^6 NAFA cells into the left groin. Ten days after injection the tumors reached 0.5-0.7 cm in diameter.
When the tumors reached 0.5-0.7 cm in diameter, the animals were treated with 1.5 mCi ^188ReO4^− followed by a 2nd dose of 1.5 mCi ^188ReO4^− one week later.

NAFA-cells xenografts = test: Histological analysis for apoptosis (Apoptag Plus kit) of NAFA-cells xenografts; type: in vivo, nude mice; details: 2×1.5 mCi, day 35 post-treatment; vs control tumors
Excerpt: At the completion of the experimental treatment with ^188Re-perrhenate, the animals were sacrificed, their tumors removed, fixed in buffered formaline, cut and analyzed for apoptosis using an Apoptag Plus® kit. Briefly, 3′-OH termini of DNA fragments, which are the hallmark of apoptosis, were labeled with digoxigenin-modified nucleotides by terminal deoxynucleotidyl transferase (TdT). […] The labeled DNA was detected using an anti-digoxigenin antibody, and the detection was performed using a chromagen. As a result the apoptotic cells were stained brown. The results are shown in FIGS. 5A-5B, where apoptotic cells appear lightly stained in the black-and-white image. […] This observation is consistent with the fact that particulate ionizing radiation is known to cause cell death through both apoptotic and necrotic pathways.

Compound: O=[N+]([O-])O [NO3^−]
- Km (rat thyroid NIS): 739 µM

Compound: [I-].[Na+] [^125I^−, sodium iodide, reference compound]
- Km (hNIS): 26.1 µM
- Km (FRTL-5 cells): 30 µM

Compound: [O-][Cl+2]([O-])O [ClO3^−]
- Km (rat thyroid NIS): 277 µM

Compound: [Na+].[O]=[Re](=[O])(=[O])[O-] [^188ReO4^−, Na perrhenate Na^188ReO4]
- Km (hNIS): 12.6 µM

Compound: [O-][Cl+3]([O-])([O-])O [ClO4^−, Na perchlorate, reference compound]
- Effect of co-administered blocking agent on uptake of both isotopes by NIS-expressing organs ([1]; 2 mg NaClO4 co-injected, all 3 time points): significantly decreased uptake of both isotopes by the stomach, salivary glands and thyroid

Compound: [O]=[Re](=[O])(=[O])[O-] [ReO4^−]
- Blocking of NIS (rat thyroid NIS): potent blocking agent for NIS

Compound: [131IH] [^131I^−]
- Actual dose to the thyroid, due to iodine organification [2]: 1300 rad/mCi
- Whole body dose [2]: 0.71 rad/mCi

Compound: [Na+].[O]=[188Re](=[O])(=[O])[O-] [^188ReO4^−, Na perrhenate Na^188ReO4]
- Concentration gradient in hNIS-transfected in comparison to non-transfected cells (hNIS; MDCK cells): 14 fold
- Tumor to normal organ ratio (RI) ([1]; 20 min, blood): 0.41
- Tumor to normal organ ratio (RI) ([1]; 20 min, kidneys): 1.22
- Tumor to normal organ ratio (RI) ([1]; 20 min, liver): 1.27
- Tumor to normal organ ratio (RI) ([1]; 20 min, muscle): 8.21
- Tumor to normal organ ratio (RI) ([1]; 20 min, salivary glands): 1.46
- Tumor to normal organ ratio (RI) ([1]; 20 min, spleen): 1.39
- Tumor to normal organ ratio (RI) ([1]; 20 min, stomach): 0.10
- Tumor to normal organ ratio (RI) ([1]; 20 min, thyroid): 0.52
- Tumor to normal organ ratio (RI) ([1]; 20 min, tumor): 1.00
- Tumor to normal organ ratio (RI) ([1]; 2 hr, blood): 0.54
- Tumor to normal organ ratio (RI) ([1]; 2 hr, kidneys): 1.40
- Tumor to normal organ ratio (RI) ([1]; 2 hr, liver): 1.43
- Tumor to normal organ ratio (RI) ([1]; 2 hr, muscle): 5.22
- Tumor to normal organ ratio (RI) ([1]; 2 hr, salivary glands): 0.54
- Tumor to normal organ ratio (RI) ([1]; 2 hr, spleen): 2.99
- Tumor to normal organ ratio (RI) ([1]; 2 hr, stomach): 0.08
- Tumor to normal organ ratio (RI) ([1]; 2 hr, thyroid): 0.25
- Tumor to normal organ ratio (RI) ([1]; 2 hr, tumor): 1.00
- Tumor to normal organ ratio (RI) ([1]; 24 hr, blood): 1.45
- Tumor to normal organ ratio (RI) ([1]; 24 hr, kidneys): 3.08
- Tumor to normal organ ratio (RI) ([1]; 24 hr, liver): 8.00
- Tumor to normal organ ratio (RI) ([1]; 24 hr, muscle): 12.50
- Tumor to normal organ ratio (RI) ([1]; 24 hr, salivary glands): 2.85
- Tumor to normal organ ratio (RI) ([1]; 24 hr, spleen): 10.00
- Tumor to normal organ ratio (RI) ([1]; 24 hr, stomach): 0.17
- Tumor to normal organ ratio (RI) ([1]; 24 hr, thyroid): 2.00
- Tumor to normal organ ratio (RI) ([1]; 24 hr, tumor): 1.00
- Whole body dose relative to ^131I^− [3]: ~2 times
- Damage to normal NIS-containing structures (thyroid, stomach histology) ([4]; 80 days, hematoxylin and eosin): absence of damage
- Weight loss or gastrointestinal toxicity ([4]; observed for 80 days): No weight loss or other gastrointestinal toxicity
- Tumor growth [5]: Tumor growth stabilization
- Apoptotic cells in tumors (NAFA-cells xenografts): significantly higher number of apoptotic cells
